Series [1] deals with T1, EP2 (Homo sapiens, UniProt P43116). Put plainly: EP2 cAMP EC50 (in vitro testing). In kind it is cell-based. The source says:
(§1) U.S. patent application Ser. No. 11/553,143, filed on Oct. 26, 2006, describes the methods used to obtain the in vitro data in the tables below.

Series [2] concerns the target T1, EP2. Put plainly: EP2 Ki (in vitro testing). Format: binding.
Source text: as §1

In series [3] the target is T1, EP2. Put plainly: EP2 Ca2+ EC50 (in vitro testing). In kind it is cell-based.
Source text: as §1

The target of series [4] is T2, EP4 (Homo sapiens, UniProt P35408). Put plainly: EP4 Ki (in vitro testing). In kind it is binding. The conditions noted are these: read-out: EP4 Ki EC50.
T2 sequence (P35408 whole entry): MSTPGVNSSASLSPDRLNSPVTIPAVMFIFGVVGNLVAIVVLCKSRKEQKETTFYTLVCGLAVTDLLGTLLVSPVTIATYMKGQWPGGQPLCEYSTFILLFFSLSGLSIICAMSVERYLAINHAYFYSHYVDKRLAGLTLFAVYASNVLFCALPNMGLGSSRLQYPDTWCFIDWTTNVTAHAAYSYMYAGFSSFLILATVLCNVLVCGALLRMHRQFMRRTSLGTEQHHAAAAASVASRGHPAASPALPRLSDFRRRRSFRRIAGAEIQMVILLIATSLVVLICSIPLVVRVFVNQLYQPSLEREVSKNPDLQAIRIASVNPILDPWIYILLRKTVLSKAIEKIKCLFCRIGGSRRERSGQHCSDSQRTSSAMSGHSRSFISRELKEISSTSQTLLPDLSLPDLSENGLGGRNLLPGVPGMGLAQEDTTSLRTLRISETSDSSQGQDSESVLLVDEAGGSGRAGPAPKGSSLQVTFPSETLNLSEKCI
Source text: as §1

For series [5], the target named is T2, EP4. Put plainly: EP4 Ca2+ EC50 (in vitro testing). In kind it is cell-based.
Source text: as §1

The target in series [6] is T3, EP3 (Homo sapiens, UniProt P43115).
T3 sequence (P43115 1-390): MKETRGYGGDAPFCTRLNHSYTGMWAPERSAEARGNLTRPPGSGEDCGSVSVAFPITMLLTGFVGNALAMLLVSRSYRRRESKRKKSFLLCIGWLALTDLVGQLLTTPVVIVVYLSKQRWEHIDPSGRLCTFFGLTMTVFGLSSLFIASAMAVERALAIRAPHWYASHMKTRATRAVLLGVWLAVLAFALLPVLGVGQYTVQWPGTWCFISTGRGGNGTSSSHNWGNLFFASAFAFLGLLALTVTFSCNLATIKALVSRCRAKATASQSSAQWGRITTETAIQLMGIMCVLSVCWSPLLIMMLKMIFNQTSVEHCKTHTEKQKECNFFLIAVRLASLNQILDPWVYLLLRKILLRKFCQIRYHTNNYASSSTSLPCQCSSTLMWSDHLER
Briefly: Other receptors Ca2+ EC50: EP3. Format: cell-based. The note with it: NA not defined in the patent.
Source text: as §1

Series [7] is described as follows: In vivo testing, Max. ΔIOP, Max. hyperemia. The source says: (§2) U.S. Pat. No. 7,091,231 describes the methods used for these in vivo tests.
A short description of series [8]: In vivo testing, Max. ΔIOP.
Source text: as §2

Series [9] addresses T4, DP (Homo sapiens, UniProt Q13258).
T4 sequence (Q13258 1-359): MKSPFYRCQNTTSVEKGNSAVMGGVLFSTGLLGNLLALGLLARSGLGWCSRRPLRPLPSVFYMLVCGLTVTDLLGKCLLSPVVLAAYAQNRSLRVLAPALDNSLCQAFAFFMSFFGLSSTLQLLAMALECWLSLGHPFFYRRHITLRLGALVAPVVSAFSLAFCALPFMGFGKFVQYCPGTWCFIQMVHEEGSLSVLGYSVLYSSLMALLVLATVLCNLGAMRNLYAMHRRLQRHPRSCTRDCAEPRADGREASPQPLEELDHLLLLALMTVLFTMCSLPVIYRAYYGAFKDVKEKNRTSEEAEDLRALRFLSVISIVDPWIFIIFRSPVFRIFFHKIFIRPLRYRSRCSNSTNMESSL
Briefly: Other receptors Ca2+ EC50: DP. In kind it is cell-based. The note with it: NA not defined in the patent.
Source text: as §1

The values that follow come from patent publication US9796696B2, “Substituted arylcyclopentenes as therapeutic agents” (Allergan, Inc., priority 2007, dated 2017).

T1 sequence (P43116 whole entry): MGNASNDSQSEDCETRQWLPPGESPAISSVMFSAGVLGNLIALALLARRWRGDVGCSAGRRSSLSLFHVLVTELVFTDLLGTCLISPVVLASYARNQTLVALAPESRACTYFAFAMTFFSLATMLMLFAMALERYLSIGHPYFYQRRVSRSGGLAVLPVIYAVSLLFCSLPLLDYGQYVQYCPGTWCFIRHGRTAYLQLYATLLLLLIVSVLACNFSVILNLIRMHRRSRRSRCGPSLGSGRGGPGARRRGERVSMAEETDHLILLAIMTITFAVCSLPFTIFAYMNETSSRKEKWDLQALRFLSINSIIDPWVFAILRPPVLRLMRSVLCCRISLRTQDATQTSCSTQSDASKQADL

The EC50 is the concentration at which the effect is half-maximal. Low readings indicate a more potent agent, high ones a less potent agent. Usually Ki stands for the dissociation constant of the complex between target and ligand, obtained from inhibition or displacement. For the compound `CCCCC[C@H](O)c1ccc(C2=C(Cl)CC[C@@H]2CCCc2ccc(C(=O)O)s2)cc1`, the EC50 in series [1] is 0.6 nM; in [3], 355 nM; in series [5], > 10000 nM; in [6], 1490 nM. The values for the Ki in [2] and in series [4] were 16 nM and 3680 nM, respectively.
As for `CCCCC[C@@H](O)c1ccc(C2=C(Cl)CC[C@@H]2CCCc2ccc(C(=O)O)s2)cc1`, the EC50 in [1] is 0.2 nM; in series [3], 83 nM; in [5] it was > 10000 nM. Also, the figures for the Ki in series [2] and in series [4] were 5 nM and 914 nM, respectively.
Regarding `CCCCCC(O)c1ccc(C2=CCC[C@@H]2CCCc2ccc(C(=O)O)s2)cc1` (stereo partly drawn), the values for the EC50 in series [1], in [3] and in [5] were 0.9 nM, 19 nM and > 10000 nM, respectively. Moreover, the results for the Ki in [2] and in [4] were 5 nM and 1180 nM, respectively.
For `CCCCCC(O)c1ccc(C2=C(F)CC[C@@H]2CCCc2ccc(C(=O)O)s2)cc1` (stereo partly drawn), the EC50 in series [1] stood at 0.2 nM; in series [3], 27 nM; in [5], 2960 nM; in series [6], 1820 nM. Also, the Ki is 2.4 nM in series [2] and > 10000 nM in [4].
As to `CCCCCC(O)c1ccc(C2=C(C#N)CC[C@@H]2CCCc2ccc(C(=O)O)s2)cc1` (stereo partly drawn), the EC50 amounted to 154 nM in series [1] and 8560 nM in [6]. The Ki in series [2] came to 1370 nM; in [4], 175 nM.
Compound `CCCCCC(O)c1ccc(C2=C(C#N)CC[C@@H]2CCCc2ccc(C(=O)O)s2)cc1` (single isomer, unassigned) [Compound 3] returned a Max. hyperemia in series [7] (Conc. 0.003 g/100 mL) of 1.3. The “Max. ΔIOP (%)” value in series [7] (Conc. 0.003 g/100 mL) was 35%; in series [8] (Conc. 0.003 g/100 mL), 46%.
The corresponding values for `CCCCCC(O)c1ccc(C2=C(C#N)CC[C@@H]2CCCc2ccc(C(=O)O)s2)cc1` (single isomer, unassigned) [Compound 4] are 1.4, 35% and 39%.
`CCCCCC(O)c1ccc(C2=C(C#N)CC[C@@H]2CCCc2ccc(C(=O)O)s2)cc1` (single isomer, unassigned) [drawing 84]: the EC50 in series [1] worked out at 0.45 nM; in series [3], 74 nM; in series [5], 2800 nM; in series [6], 3540 nM. For the same compound, the Ki is 5 nM in [2] and > 10000 nM in series [4].
Take `CCCCCC(O)c1ccc(C2=C(C#N)CC[C@@H]2CCCc2ccc(C(=O)O)s2)cc1` (single isomer, unassigned) [drawing 85]: the EC50 is 0.4 nM in [1], 65 nM in [3], 3350 nM in [5] and 202 nM in [6]. Moreover, the Ki in series [2] amounted to 3 nM; in series [4], 16000 nM.
With `CCCCCC(O)c1ccc(C2=C(Cl)CC[C@@H]2CCCc2ccc(C(=O)O)s2)cc1` (stereo partly drawn) [Compound 1], in series [7] (Conc. 0.01 g/100 mL), the Max. hyperemia is listed as 1.7 and the “Max. ΔIOP (%)” value is 39%. In series [8] (0.1% dose), the “Max. ΔIOP (%)” value is 62 (0.1% dose).
For the compound `CCCCCC(O)c1ccc(C2=C(Cl)CC[C@@H]2CCCc2ccc(C(=O)OC(C)C)s2)cc1` (stereo partly drawn) [Compound 2], in [7] (Conc. 0.1 g/100 mL), the Max. hyperemia turned out to be 1.7 and the “Max. ΔIOP (%)” value was 21%. Besides, in [8] (0.1% dose), the “Max. ΔIOP (%)” value amounted to 26%.
Regarding `CCCCCC(O)c1ccc(C2=C(C#N)CC[C@@H]2CCCc2ccc(C(=O)OCCO)s2)cc1` (stereo partly drawn) [Compound 5], in series [7] (Conc. 0.01 g/100 mL), the Max. hyperemia came out at 1.9 and the “Max. ΔIOP (%)” value came to 41%. Besides, in [8] (Conc. 0.01 g/100 mL), the “Max. ΔIOP (%)” value is reported as 53%.
The corresponding values for `CCCCC[C@H](O)c1ccc(C2=CCC[C@@H]2CCCc2ccc(C(=O)O)s2)cc1` [Compound 6] are 2.0, 32% and 31%.
In the case of `CCCCC[C@@H](O)c1ccc(C2=CCC[C@@H]2CCCc2ccc(C(=O)O)s2)cc1` [Compound 7], in [7] (Conc. 0.01 g/100 mL), the Max. hyperemia stood at 1.8 and the “Max. ΔIOP (%)” value was determined as 37%.
Regarding `CCCCCC(O)c1ccc(C2=C(Br)CC[C@@H]2CCCc2ccc(C(=O)O)s2)cc1` (stereo partly drawn) [drawing 79], the EC50 is 0.4 nM in [1], 403 nM in [3], > 10000 nM in series [5] and 2340 nM in series [6]. The Ki in series [2] was 1.5 nM; in series [4] it was 966 nM.
As to `CCCCCC(O)c1ccc(C2=C(CO)CC[C@@H]2CCCc2ccc(C(=O)O)s2)cc1` (stereo partly drawn) [drawing 81], the EC50 was 48 nM in series [1], 119 nM in series [3], > 10000 nM in series [5] and 6980 nM in series [6]. Moreover, the Ki was 53 nM in series [2] and 1540 nM in series [4].
For the compound `CCCCCC(O)c1ccc(C2=C(O)C(=O)C[C@@H]2C/C=C\CCCC(=O)O)cc1` (stereo partly drawn) [drawing 82], the EC50 in [1] was 54 nM; in series [3], 442 nM; in series [5], > 10000 nM; in series [6], 9640 nM. Moreover, the Ki was 313 nM in [2] and 785 nM in [4].
Regarding `CCCCCC(O)c1ccc(C2C(Br)=CC[C@@H]2CCCc2ccc(C(=O)O)s2)cc1` (stereo partly drawn) [drawing 83], the 50% effective concentration (EC50) is 0.7 nM in series [1], 847 nM in series [3], > 10000 nM in series [5] and 3220 nM in [6]. In addition, the Ki in [2] came out at 5 nM; in [4] it was 522 nM.
Regarding `CCCCC[C@H](O)c1ccc(C2=CCC[C@@H]2CCCc2ccc(C(=O)O)s2)cc1` [drawing 86], the EC50 in [1] stood at 1 nM; in series [3] it was 27 nM; in series [6] it was 3090 nM; in [9], 7740 nM. The compound also showed a Ki in [2] of 18 nM.
For `CCCCC[C@@H](O)c1ccc(C2=CCC[C@@H]2CCCc2ccc(C(=O)O)s2)cc1` [drawing 87], the EC50 in series [1] was found to be 0.8 nM; in series [3], 36 nM; in [6], 5890 nM; in series [9] it was 9920 nM. Also, the values for the Ki in series [2] and in series [4] were 10 nM and 16300 nM, respectively.
`CCCCCC(O)c1ccc(C2=C(C)CC[C@@H]2CCCc2ccc(C(=O)O)s2)cc1` (stereo partly drawn) [drawing 88]: the half-maximal effective concentration (EC50) in series [1] was 4 nM; in [3], 193 nM; in [5], 955 nM; in series [6] it was 7340 nM. Moreover, the Ki in series [2] was 16 nM; in series [4], > 10000 nM.
